Data from ChEMBL document CHEMBL5370549, “Optimization and evaluation of pyridinyl vinyl sulfones as Nrf2 activator for the antioxidant and anti-inflammatory effects” (Eur J Med Chem, 2023).
Counter-ions that a name gives are not always drawn.

What was measured:
[1] = Metabolic stability of the compound in human liver microsomes assessed as parent compound remaining measured after 30 mins; type: ADME, Microsome; settings: read-out: Stability
[2] = Metabolic stability of the compound in rat plasma assessed as parent compound remaining measured after 30 mins; type: ADME, cell-free; settings: read-out: Stability
CYP2C19 = CYP2C19 (Homo sapiens, UniProt P33261); test: Inhibition of CYP2C19 (unknown origin) assessed as enzyme activity at 10 uM relative to control; type: ADME; design: scale not given: the % may be the effect or the level left; settings: read-out: Activity
CYP2C19, sequence (P33261 whole entry): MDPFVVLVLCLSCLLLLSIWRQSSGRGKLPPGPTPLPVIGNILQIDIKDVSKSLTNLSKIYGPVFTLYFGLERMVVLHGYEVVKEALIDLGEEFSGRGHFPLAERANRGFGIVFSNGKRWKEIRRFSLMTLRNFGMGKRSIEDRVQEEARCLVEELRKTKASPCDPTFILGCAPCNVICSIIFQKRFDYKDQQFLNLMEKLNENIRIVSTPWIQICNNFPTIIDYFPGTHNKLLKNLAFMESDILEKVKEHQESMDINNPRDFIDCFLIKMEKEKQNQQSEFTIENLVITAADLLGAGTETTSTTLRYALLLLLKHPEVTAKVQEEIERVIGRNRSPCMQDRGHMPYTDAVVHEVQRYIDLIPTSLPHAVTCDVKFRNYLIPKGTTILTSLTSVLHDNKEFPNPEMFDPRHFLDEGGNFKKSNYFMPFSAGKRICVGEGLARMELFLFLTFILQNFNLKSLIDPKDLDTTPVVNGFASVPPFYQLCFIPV

[3] = molecular target: T1, Nuclear factor erythroid 2-related factor 2 (Homo sapiens, UniProt Q16236); test: Activation of Nrf2 in human U2OS cells co-expressing Keap1 assessed as induction of Nrf2 nuclear translocation incubated for 6 hrs by PathHunter chemiluminescence based analysis; type: cell-based
T1 sequence (Q16236 whole entry): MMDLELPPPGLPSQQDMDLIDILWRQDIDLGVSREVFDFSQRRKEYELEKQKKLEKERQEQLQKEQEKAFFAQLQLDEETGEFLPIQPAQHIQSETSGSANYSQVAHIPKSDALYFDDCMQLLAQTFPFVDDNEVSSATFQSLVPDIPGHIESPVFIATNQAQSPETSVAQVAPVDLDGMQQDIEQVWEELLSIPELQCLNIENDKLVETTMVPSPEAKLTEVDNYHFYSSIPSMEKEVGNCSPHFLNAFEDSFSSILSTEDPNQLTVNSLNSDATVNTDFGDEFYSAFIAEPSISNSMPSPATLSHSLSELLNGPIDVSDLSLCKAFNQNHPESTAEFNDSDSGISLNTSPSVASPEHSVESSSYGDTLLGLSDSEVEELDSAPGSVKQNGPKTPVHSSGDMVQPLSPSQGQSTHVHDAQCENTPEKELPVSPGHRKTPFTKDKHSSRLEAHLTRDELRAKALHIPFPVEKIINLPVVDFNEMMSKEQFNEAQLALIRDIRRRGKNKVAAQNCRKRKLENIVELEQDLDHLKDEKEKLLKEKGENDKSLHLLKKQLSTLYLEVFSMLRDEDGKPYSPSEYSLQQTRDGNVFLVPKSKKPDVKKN

[4] = Metabolic stability of the compound in mouse liver microsomes assessed as parent compound remaining measured after 30 mins; type: ADME, Microsome; settings: read-out: Stability
CYP2D6 = CYP2D6 (Homo sapiens, UniProt P10635); test: Inhibition of CYP2D6 (unknown origin) assessed as enzyme activity at 10 uM relative to control; type: ADME; design: scale not given: the % may be the effect or the level left; settings: read-out: Activity
CYP2D6, sequence (P10635 whole entry): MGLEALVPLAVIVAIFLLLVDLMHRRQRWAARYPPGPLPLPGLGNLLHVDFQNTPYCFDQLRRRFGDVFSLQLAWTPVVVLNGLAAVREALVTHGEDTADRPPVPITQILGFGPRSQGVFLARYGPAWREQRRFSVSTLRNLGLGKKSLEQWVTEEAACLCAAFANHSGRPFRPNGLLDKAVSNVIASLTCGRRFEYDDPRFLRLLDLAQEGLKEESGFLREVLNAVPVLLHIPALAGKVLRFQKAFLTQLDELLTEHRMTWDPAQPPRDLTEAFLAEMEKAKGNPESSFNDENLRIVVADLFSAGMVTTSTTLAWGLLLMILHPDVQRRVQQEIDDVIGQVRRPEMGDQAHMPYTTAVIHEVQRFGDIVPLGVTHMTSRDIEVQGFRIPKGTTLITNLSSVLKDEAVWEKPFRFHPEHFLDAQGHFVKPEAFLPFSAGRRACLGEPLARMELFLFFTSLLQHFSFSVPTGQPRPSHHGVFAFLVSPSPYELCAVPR

CYP2C9 = CYP2C9 (Homo sapiens, UniProt P11712); test: Inhibition of CYP2C9 (unknown origin) assessed as enzyme activity at 10 uM relative to control; type: ADME; design: scale not given: the % may be the effect or the level left; settings: read-out: Activity
CYP2C9, sequence (P11712 whole entry): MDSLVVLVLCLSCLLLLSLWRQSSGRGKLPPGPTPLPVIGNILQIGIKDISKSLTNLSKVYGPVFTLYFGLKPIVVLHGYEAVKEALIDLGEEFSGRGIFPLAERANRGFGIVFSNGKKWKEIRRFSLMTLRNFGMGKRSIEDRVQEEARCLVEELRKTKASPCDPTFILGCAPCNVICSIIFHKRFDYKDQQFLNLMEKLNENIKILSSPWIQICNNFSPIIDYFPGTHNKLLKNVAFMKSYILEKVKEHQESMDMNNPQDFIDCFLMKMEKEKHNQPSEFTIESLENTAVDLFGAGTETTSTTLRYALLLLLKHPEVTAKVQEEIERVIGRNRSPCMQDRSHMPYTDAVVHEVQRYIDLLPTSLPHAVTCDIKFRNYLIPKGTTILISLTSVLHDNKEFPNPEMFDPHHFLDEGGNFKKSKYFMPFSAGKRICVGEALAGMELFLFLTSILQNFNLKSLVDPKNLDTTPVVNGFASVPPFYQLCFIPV

[5] = Metabolic stability of the compound in human plasma assessed as parent compound remaining measured after 30 mins; type: ADME, cell-free; settings: read-out: Stability
CYP3A4 = CYP3A4 (Homo sapiens, UniProt P08684); test: Inhibition of CYP3A4 (unknown origin) assessed as enzyme activity at 10 uM relative to control; type: ADME; design: scale not given: the % may be the effect or the level left; settings: read-out: Activity
CYP3A4, sequence (P08684 whole entry): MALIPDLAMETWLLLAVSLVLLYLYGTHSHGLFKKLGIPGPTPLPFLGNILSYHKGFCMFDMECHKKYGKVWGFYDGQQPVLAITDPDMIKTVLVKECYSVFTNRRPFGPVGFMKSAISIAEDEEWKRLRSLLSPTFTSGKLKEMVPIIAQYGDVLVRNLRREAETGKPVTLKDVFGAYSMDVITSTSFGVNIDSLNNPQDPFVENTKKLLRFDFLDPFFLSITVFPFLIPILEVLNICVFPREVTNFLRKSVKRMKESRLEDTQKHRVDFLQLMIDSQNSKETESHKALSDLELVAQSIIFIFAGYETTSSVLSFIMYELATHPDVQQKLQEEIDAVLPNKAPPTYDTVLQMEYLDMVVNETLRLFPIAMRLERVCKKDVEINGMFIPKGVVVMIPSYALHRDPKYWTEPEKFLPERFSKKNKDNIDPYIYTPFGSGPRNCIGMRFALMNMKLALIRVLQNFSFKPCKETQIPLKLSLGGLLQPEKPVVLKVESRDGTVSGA

CYP1A2 = molecular target: T2, CYP1A2 (Homo sapiens, UniProt P05177); test: Inhibition of CYP1A2 (unknown origin) assessed as enzyme activity at 10 uM relative to control; type: ADME; design: scale not given: the % may be the effect or the level left; settings: read-out: Activity
T2 sequence (P05177 whole entry): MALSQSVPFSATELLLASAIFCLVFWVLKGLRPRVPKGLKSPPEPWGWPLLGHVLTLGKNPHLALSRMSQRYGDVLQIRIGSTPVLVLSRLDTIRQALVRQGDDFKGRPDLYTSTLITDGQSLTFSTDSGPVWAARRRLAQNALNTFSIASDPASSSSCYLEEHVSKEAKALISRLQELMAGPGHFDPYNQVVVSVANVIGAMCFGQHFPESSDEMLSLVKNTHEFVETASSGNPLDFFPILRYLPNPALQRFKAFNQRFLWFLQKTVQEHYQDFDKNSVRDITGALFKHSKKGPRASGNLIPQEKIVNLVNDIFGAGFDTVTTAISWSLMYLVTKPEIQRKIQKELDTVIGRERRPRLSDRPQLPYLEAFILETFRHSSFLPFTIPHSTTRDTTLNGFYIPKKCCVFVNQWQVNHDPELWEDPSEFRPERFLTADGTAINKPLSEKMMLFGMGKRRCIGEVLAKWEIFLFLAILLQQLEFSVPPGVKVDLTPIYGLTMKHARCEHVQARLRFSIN

| remaining at 0.5 h [1] [%] | remaining at 0.5 h [2] [%] | activity at 10 µM (CYP2C19) [%] | EC50 [3] [nM] | remaining at 0.5 h [4] [%] | activity at 10 µM (CYP2D6) [%] | activity at 10 µM (CYP2C9) [%] | remaining at 0.5 h [5] [%] | activity at 10 µM (CYP3A4) [%] | activity at 10 µM (CYP1A2) [%] | Compound |
| --- | --- | --- | --- | --- | --- | --- | --- | --- | --- | --- |
| 77.3 | 43.4 | 22.4 | 32 | 50.4 | 69.8 | > 99 | 83.6 | 70.2 | 29.9 | COc1ccnc(S(=O)(=O)/C=C/c2ccncc2Cl)c1 |
| 58.5 | 95.3 | 14.9 | 115 | 1.6 | 96.3 | 38.2 | 99 | 39.8 | 33.8 | COc1ccnc(S(=O)(=O)/C=C/c2ccccc2C(F)(F)F)c1 |
| 9.5 | > 99 | 5.4 | 130 | 5.6 | 100 | > 99 | > 99 | 58.8 | 46.1 | COc1ccc(S(=O)(=O)/C=C/c2ccccc2Cl)nc1 |
| 88.4 | 59 | 24.3 | 400 | 64.5 | > 99 | > 99 | 93.1 | > 99 | 89.6 | COc1ccnc(S(=O)(=O)/C=C/c2ccnc(Cl)c2)c1 |
| 59.4 | 88.6 | 17.6 | 214 | 29.9 | > 99 | > 99 | 97.4 | 51.7 | 57.3 | COc1ncccc1S(=O)(=O)/C=C/c1ncccc1C(F)(F)F |
|  |  |  | > 10000 |  |  |  |  |  |  | COC(=O)/C=C/C(=O)O [MONOMETHYL FUMARATE] |
| 46.3 | > 99 | 32.9 |  | 5 | 95.9 | 56.3 | > 99 | 36.9 | 32.8 | COc1cccnc1[S+]([O-])/C=C/c1ccccc1C(F)(F)F (stereo unspecified) |
| 40.6 | 92.2 | 6.4 |  | 1.4 | 85.7 | 81.9 | 96 | 45.1 | 34.3 | COc1ccnc([S+]([O-])/C=C/c2ccccc2C(F)(F)F)c1 (stereo unspecified) |
| 37.8 | > 99 | 10.5 | 1220 | 18.8 | 98.5 | > 99 | > 99 | 85.8 | 49 | COc1ccnc(S(=O)(=O)/C=C/c2ccc(Cl)cc2)c1 |
| 22.8 | 96.5 | 11.1 | 58 | 2.2 | 97.5 | 73.6 | > 99 | 49.8 | 28.5 | COc1ccnc(S(=O)(=O)/C=C/c2ccccc2Cl)c1 |
| 75.2 | 89.3 | 16.2 | 749 | 48.1 | 94.4 | > 99 | 91.3 | 51.7 | 12.4 | COc1ncccc1S(=O)(=O)/C=C/c1ccccc1C(F)(F)F |
| 28 | 89 | 2.5 |  | 1 | 94 | > 99 | > 99 | 78 | 48.8 | COc1ccc([S+]([O-])/C=C/c2ccccc2C(F)(F)F)nc1 (stereo unspecified) |
| 6.3 | 89.8 | 5.5 |  | 1.1 | 72.6 | 78.3 | 82.4 | 38.3 | 4.9 | COc1cccc([S+]([O-])/C=C/c2ccccc2C(F)(F)F)n1 (stereo unspecified) |
| 65.8 | 97.3 | 17.9 | 914 | 82.1 | > 99 | 91.7 | 98.6 | > 99 | 83 | COc1ccnc(S(=O)(=O)/C=C/c2ccc(Cl)nc2)c1 |
| 75.2 | 98.9 | 7.1 | 189 | 48.1 | 99.5 | > 99 | > 99 | 48.5 | 10.7 | COc1ncccc1S(=O)(=O)/C=C/c1ccccc1Cl |
| 87.8 | 84.1 | 60.5 | 107 | 64.7 | > 99 | 69.7 | 94 | 36.4 | 72.6 | COc1cccnc1S(=O)(=O)/C=C/c1ncccc1C(F)(F)F |
| 52.9 | 93.5 | 59.1 | 146 | 17.8 | 99.1 | 79.2 | 96.8 | 76 | 71.2 | COc1cccnc1S(=O)(=O)/C=C/c1ccccc1C(F)(F)F |
| 63.2 | 82.4 | 29.8 | 174 | 19 | > 99 | 31 | 90.9 | 83.2 | 72.2 | COc1ccnc(S(=O)(=O)/C=C/c2ncccc2C(F)(F)F)c1 |
| 89.4 | 93 | 68.4 | 801 | 63.6 | 98.8 | 79.7 | 95.9 | 89.8 | 79.4 | COc1cccnc1S(=O)(=O)/C=C/c1ccccc1F |
| 1 | 94.3 | 8.2 |  | 1.4 | 91.3 | > 99 | 96.5 | 27.4 | 3.7 | COc1cccnc1C(=O)/C=C/c1ccccc1C(F)(F)F |
| 91.4 |  | 42.9 | 51 | 77.1 | 88.7 | > 99 |  | 15.7 | 79.5 | COc1ccncc1S(=O)(=O)/C=C/c1ncccc1Cl |
| 82.9 |  | 23.5 | 248 | 71.9 | 85.1 | > 99 |  | 12 | 12.1 | COc1ccncc1S(=O)(=O)/C=C/c1ccccc1C(F)(F)F |
|  |  |  | 5110 |  |  |  |  |  |  | COC(=O)/C=C/C(=O)OC [DIMETHYL FUMARATE] |
| > 99 |  | > 99 | 1870 | > 99 | 91.9 | 66.5 |  | > 99 | 82.1 | COc1cccnc1/C=C/S(=O)(=O)c1ncccc1OC |
